Test results from patent US20230255972A1, “PYRIMIDINE COMPOUND-CONTAINING COMBINATION TO BE USED IN TUMOR TREATMENT” (TAIHO PHARMACEUTICAL CO., LTD., priority 2020, published 2023).
Read-outs that look alike come from different tables or passages of the source.

Experiments:
[1] = test system: Human stomach cancer-derived tumor cells 4-1ST; conditions: for BWC (%, Mean ± SE) / T/C (%) / TV (mm^3, mean ± SE): Day 15; for BWC (%, Mean ± SE) / T/C (%) / TV (mm^3, mean ± SE) / Number of Death / cCR (%) / pCR (%): Days 1-14, po; for cCR (%): clinical CR (TV=0); for pCR (%): pathological CR
Procedure: Tumor was removed approximately 1 month after subcutaneous transplantation and passage in a 6 week old male nude mouse (BALB/cAJc1-nu/nu, CLEA Japan, Inc.), and a fragment of approximately 2 mm square was prepared. A transplantation needle was filled with one fragment and subcutaneously inserted from around the right last rib of each nude mouse so as to enter the right back. The tumor was pushed out by pressing the inner syringe and thereby transplanted. For the measurement of the tumor size, electronic calipers were used. […] A tumor volume (TV) was calculated from this major axis and minor axis. A relative tumor volume change percentage (T/C) was calculated from the calculated tumor volume. TV and T/C were calculated according to the following equations:
(§1) Tumor Volume (TV)(mm^3)=(Major axis,mm)×(Minor axis,mm)×(Minor axis,mm)/2
(§2) Relative tumor volume change percentage (T/C)(%)=(Mean TV of the administration group)/(Mean TV of a control group)×100
(§3) For the measurement of the body weight, an animal electronic balance was used. A body weight change percentage on the n^th day (BWCn) from the body weight on 0th day (BW0) and the body weight on the n^th day (BWn) was calculated according to the following equation:
(§4) Body weight change percentage BWCn (%)=(BWn−BW0)/BW0×100
Nude mice having TV of 100 to 300 mm^3 were selected and assigned to groups each involving 6 animals by the equal number method [MiSTAT (ver. 2.0)] such that the means of TV were equal among the groups. […] An untreated group was used as a control.
(§5) The presence or absence of a combinatorial effect and toxicity was judged from the tumor sizes and the body weights on the grouping day (Day 0) and the judgement day (Day 15). During the administration period, the body weight was measured every day for calculation of the amount of the dosing solution.
When an individual of TV=0 was found, a complete response (hereinafter, CR) rate was also set as an evaluation item. For the judgement of CR, clinical CR (cCR) based on TV=0 and pathological CR (pCR) based on pathological test were used.
CR rate=(The number of CR individuals in a group found to have CR)/(Total number of individuals in the group found to have CR)×100

EGFR [L858R] = target: T1, EGFR [L858R] (Homo sapiens, UniProt P00533, L858R); experiment: Phosphorylation activity inhibitory effect (in vitro) on mutant EGFR L858R; format: biochemical
T1 construct: purchased Carna Biosciences, Inc
T1 sequence (P00533 25-1210 L858R): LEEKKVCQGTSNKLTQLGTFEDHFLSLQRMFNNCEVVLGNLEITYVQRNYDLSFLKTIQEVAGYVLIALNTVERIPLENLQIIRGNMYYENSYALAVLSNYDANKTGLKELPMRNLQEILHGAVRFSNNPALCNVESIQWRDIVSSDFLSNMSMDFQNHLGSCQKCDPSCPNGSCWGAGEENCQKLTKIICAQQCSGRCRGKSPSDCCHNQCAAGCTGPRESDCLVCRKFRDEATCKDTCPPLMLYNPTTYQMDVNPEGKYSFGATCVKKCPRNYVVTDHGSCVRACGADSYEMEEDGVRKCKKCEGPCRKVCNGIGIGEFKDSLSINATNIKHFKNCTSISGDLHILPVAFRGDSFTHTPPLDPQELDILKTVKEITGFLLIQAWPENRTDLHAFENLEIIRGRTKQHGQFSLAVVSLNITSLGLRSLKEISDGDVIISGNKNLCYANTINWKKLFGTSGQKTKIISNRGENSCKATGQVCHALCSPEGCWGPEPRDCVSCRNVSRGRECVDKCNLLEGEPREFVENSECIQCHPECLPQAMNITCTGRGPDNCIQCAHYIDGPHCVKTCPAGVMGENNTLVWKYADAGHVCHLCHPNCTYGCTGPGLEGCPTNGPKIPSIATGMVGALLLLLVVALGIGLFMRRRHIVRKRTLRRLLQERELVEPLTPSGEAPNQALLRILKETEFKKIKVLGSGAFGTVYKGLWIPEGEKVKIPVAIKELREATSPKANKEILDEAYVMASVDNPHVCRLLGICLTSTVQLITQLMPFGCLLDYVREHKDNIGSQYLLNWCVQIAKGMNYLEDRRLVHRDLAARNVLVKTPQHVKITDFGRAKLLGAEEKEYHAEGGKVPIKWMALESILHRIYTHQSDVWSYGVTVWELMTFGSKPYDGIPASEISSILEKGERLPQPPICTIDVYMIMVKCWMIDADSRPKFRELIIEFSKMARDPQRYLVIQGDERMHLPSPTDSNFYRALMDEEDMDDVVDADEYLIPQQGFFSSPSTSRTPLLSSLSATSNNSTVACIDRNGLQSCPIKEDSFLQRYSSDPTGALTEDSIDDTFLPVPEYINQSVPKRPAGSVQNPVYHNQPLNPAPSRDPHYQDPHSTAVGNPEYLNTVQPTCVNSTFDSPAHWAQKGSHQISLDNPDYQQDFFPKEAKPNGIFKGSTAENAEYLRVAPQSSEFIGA
Procedure: Test Example 6 Measurement of Phosphorylation Activity Inhibitory Effect (In Vitro) on Wild-Type and Mutant EGFR
The measurement of the in vitro inhibitory activity of a compound against wild-type and mutant EGFR was outsourced to Carna Biosciences, Inc. (Kinase Profiling Book, https://www.carnabio.com/japanese/product/search.cgi?mode=profiling).
Specifically, first, the pyrimidine compound of the present invention was diluted stepwise with dimethyl sulfoxide (DMSO). […] To the reaction solution, Termination Buffer was added, so as to terminate the kinase reaction. Finally, using LabChip™ EZ Reader II (PerkinElmer), an unphosphorylated substrate peptide (S) and a phosphorylated peptide (P) were separated and detected according to microchannel capillary electrophoresis.
As the pyrimidine compound of the present invention, the compound of Example 11 (Example compound 11) was used.

[2] = test system: Human stomach cancer-derived tumor cells 4-1ST
Procedure: Human stomach cancer-derived tumor cells 4-1ST were obtained as fragment tumor from the Central Institute for Experimental Animals. Tumor was removed approximately 1 month after subcutaneous transplantation and passage in a 6 week old male nude mouse (BALB/cAJc1-nu/nu, CLEA Japan, Inc.), and a fragment of approximately 2 mm square was prepared. A transplantation needle was filled with one fragment and subcutaneously inserted from around the right last rib of each nude mouse so as to enter the right back. The tumor was pushed out by pressing the inner syringe and thereby transplanted. For the measurement of the tumor size, electronic calipers were used. […] A tumor volume (TV) was calculated from this major axis and minor axis. A relative tumor volume change percentage (T/C) was calculated from the calculated tumor volume. TV and T/C were calculated according to the following equations:
as §1, §2, §3, §4
Nude mice having TV of 50 to 300 mm^3 were selected and assigned to groups each involving 6 animals by the equal number method [MiSTAT (ver. 2.1)] such that the means of TV were equal among the groups. […] An untreated group was used as a control.
as §5
An untreated group was used as a control.

[3] = Day 15, Example 11 6.25 mg/kg/day, Days 1-14, po

Compound: C=CC(=O)N1C[C@H](n2c(C#CC3CC3)c(C(=O)N[C@H](C)c3ccccc3)c3c(N)ncnc32)C[C@@H]1C [Example 11, 7-((3R,5S)-1-acryloyl-5-methylpyrrolidin-3-yl)-4-amino-6-(cyclopropylethynyl)-N—((R)-1-phenylethyl)-7H-pyrrolo[2,3-d]pyrimidine-5-carboxamide]
- BWC (%, Mean ± SE) ([1]; Example 11 6.25 mg/kg/day): 5.93 ± 0.25%
- T/C (%) ([1]; Example 11 6.25 mg/kg/day): 17.3%
- TV (mm^3, mean ± SE) ([1]; Example 11 6.25 mg/kg/day): 295.9 ± 67.3 mm^3
- BWC (%, Mean ± SE) ([1]; Example 11 12.5 mg/kg/day): 4.77 ± 1.14%
- T/C (%) ([1]; Example 11 12.5 mg/kg/day): 1.9%
- TV (mm^3, mean ± SE) ([1]; Example 11 12.5 mg/kg/day): 31.9 ± 10.7 mm^3
- Number of Death ([1]; Example 11 6.25 mg/kg/day): 0
- Number of Death ([1]; Example 11 12.5 mg/kg/day): 0
- TV on Day 15 versus control group (Dunnett's test) ([1]; T-mab and P-mab iv Day 1, Example 11 po Days 1-14): significantly lower TV
- cCR (%) ([1]; Example 11 6.25 mg/kg/day): 0%
- cCR (%) ([1]; Example 11 12.5 mg/kg/day): 33%
- pCR (%) ([1]; Example 11 6.25 mg/kg/day): 0%
- pCR (%) ([1]; Example 11 12.5 mg/kg/day): 33%
- IC50 (EGFR [L858R]): 360 pM
- BWC (%, Mean ± SE) [2, 3]: 4.0 ± 0.7%
- T/C (%) [2, 3]: 14.5%
- TV (mm^3, mean ± SE) [2, 3]: 233.6 ± 42.6 mm^3
- Number of Death ([2]; Example 11 6.25 mg/kg/day, Days 1-14, po): 0
- TV on Day 15 versus control group (Dunnett's test) ([2]; trastuzumab emtansine iv Day 1, Example 11 po Days 1-14): significantly lower TV
